Values of other authors in patent publication US20240398763A1, “ORAL DOSAGE FORM CONTAINING ONCOLOGICAL ACTIVE INGREDIENT” (OWP Pharmaceuticals, Inc., priority 2023, published 2024).
Values after ≈ are worked out from the molar mass of the structure shown. Like-named read-outs stand apart in the source and are kept apart here.

[1] = in water / aqueous media, in words

Row | SMILES | Solubility [1] | also measured
1 | Cn1cc(-c2cc3c(N4CCN(c5ncc([C@@](C)(N)c6ccc(F)cc6)cn5)CC4)ncnn3c2)cn1 [avapritinib] | insoluble in water | 
2 | C[C@]12CC[C@@H]3c4ccc(OC(=O)N(CCCl)CCCl)cc4CC[C@H]3[C@@H]1CC[C@@H]2OP(=O)(O)O [estramustine phosphate] | water soluble | 
3 | C=CC(=O)Nc1cc(Nc2ncc(C(=O)OC(C)C)c(-c3cn(C)c4ccccc34)n2)c(OC)cc1N(C)CCN(C)C [mobocertinib] |  | Solubility (pH 1.0 solution at 37° C.): solubility of 152 mg/mL
4 | Nc1nc(F)nc2c1ncn2[C@@H]1O[C@H](COP(=O)(O)O)[C@@H](O)[C@@H]1O [fludarabine phosphate] |  | Solubility (condition not given): 3 mg/mL
5 | Cc1nc(NC(=O)N2CCC[C@H]2C(N)=O)sc1-c1ccnc(C(C)(C)C(F)(F)F)c1 [alpelisib] | insoluble in water | 
6 | Cn1nnc2c(C(N)=O)ncn2c1=O [temozolomide] |  | Solubility (condition not given): 7 mg/mL (≈ 36.1 mM)
7 | CC(C)(O)CNc1nc(Nc2ccnc(C(F)(F)F)c2)nc(-c2cccc(C(F)(F)F)n2)n1 [enasidenib] | practically insoluble | Solubility (aqueous solutions across physiological pH range (pH 1.2 and 7.4)): (solubility ≤74 mcg/mL)
